# Laboratory results: patent US8088925B2, “Heteroaryl-carboxylic acid (sulfamoyl alkyl) amide-derivatives as factor Xa inhibitors” (priority 2005, dated 2012)
# pKi: −log10 of the molar value.
# Target: T1, human factor Xa (Homo sapiens, UniProt P00742)
# T1 construct: human factor Xa; purchased Enzyme Research Laboratories, Inc; South Bend, Ind
# Assay: Factor Xa assay (chromogenic, purified enzyme)
# Format: biochemical
# Details: inhibition constant for factor Xa; chromogenic substrate S-2765 140 μM, enzyme 0.5 nM, 25° C.; Ki=IC50/{1+(substrate concentration/Km)}; read-out: Ki (FXa)
# Experimental: Purified enzymes were used in chromogenic assays.
# The assay was performed by pre-incubating the compound of formula I or Ia plus enzyme for 10 min. Then the assay was initiated by adding substrate to obtain a final volume of 100 μl. The initial velocity of chromogenic substrate hydrolysis was measured by the change in absorbance at 405 nm using a Bio-tek Instruments kinetic plate reader (Ceres UV900HDi) at 25° C. during the linear portion of the time course (usually 1.5 min after addition of substrate).
# T1 sequence (P00742 235-488 limits assumed): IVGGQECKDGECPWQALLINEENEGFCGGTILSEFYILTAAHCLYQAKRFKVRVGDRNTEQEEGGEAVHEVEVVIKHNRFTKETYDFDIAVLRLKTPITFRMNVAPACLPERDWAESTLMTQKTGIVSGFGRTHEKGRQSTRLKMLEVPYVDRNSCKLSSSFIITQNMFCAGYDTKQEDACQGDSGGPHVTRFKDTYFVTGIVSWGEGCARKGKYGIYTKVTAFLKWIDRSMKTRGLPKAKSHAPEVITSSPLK
# T1 sequence (P00742 41-179 partner limits assumed): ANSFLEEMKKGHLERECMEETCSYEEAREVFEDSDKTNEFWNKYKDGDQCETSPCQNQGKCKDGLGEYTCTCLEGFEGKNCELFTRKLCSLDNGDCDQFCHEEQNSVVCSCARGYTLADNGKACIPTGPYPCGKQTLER
row,SMILES,pKi
1,"CC(C)N1CCC(N(CC(=O)N(C)C)S(=O)(=O)CCNC(=O)c2ccc(Cl)s2)CC1 [Example 18, 5-Chloro-thiophene-2-carboxylic acid {2-[dimethylcarbamoylmethyl-(1-isopropyl-piperidin-4-yl)-sulfamoyl]-ethyl}-amide]",8.30
2,"O=C(NCCS(=O)(=O)NC1CCN(C2CC2)CC1)c1ccc(Cl)s1 [Example 2, 5-Chloro-thiophene-2-carboxylic acid [2-(1-cyclopropyl-piperidin-4-ylsulfamoyl)-ethyl]-amide]",6.78
3,"CC(C)N1CCC(NS(=O)(=O)CCNC(=O)c2ccc(Cl)cc2)CC1 [Example 12, 4-Chloro-N-[2-(1-isopropyl-piperidin-4-ylsulfamoyl)-ethyl]-benzamide]",6.24
4,"CC(C)N1CCC(NS(=O)(=O)CCNC(=O)c2cccc(Cl)c2)CC1 [Example 14, 3-Chloro-N-[2-(1-isopropyl-piperidin-4-ylsulfamoyl)-ethyl]-benzamide]",4.71
5,"CC(C)N1CCC(NS(=O)(=O)CCCNC(=O)c2ccc(Cl)s2)CC1 [Example 29, 5-Chloro-thiophene-2-carboxylic acid [3-(1-isopropyl-piperidin-4-ylsulfamoyl)-propyl]-amide]",6.40
6,"COCCN(C1CCN(C(C)C)CC1)S(=O)(=O)CCNC(=O)c1ccc(Cl)s1 [Example 15, 5-Chloro-thiophene-2-carboxylic acid {2-[(1-isopropyl-piperidin-4-yl)-(2-methoxy-ethyl)-sulfamoyl]-ethyl}-amide]",8.30
7,"CC(C)N1CCC(N(CC(F)(F)F)S(=O)(=O)CCNC(=O)c2ccc(Cl)s2)CC1 [Example 4, 5-Chloro-thiophene-2-carboxylic acid {2-[(1-isopropyl-piperidin-4-yl)-(2,2,2-trifluoro-ethyl)-sulfamoyl]-ethyl}-amide]",7.82
8,"CC(C)N1CCC(NS(=O)(=O)CCNC(=O)c2ccc(Br)s2)CC1 [Example 9, 5-Bromo-thiophene-2-carboxylic acid[2-(1-isopropyl-piperidin-4-ylsulfamoyl)-ethyl]-amide]",8.22
9,"Cc1cc(CN(C2CCN(C(C)C)CC2)S(=O)(=O)CCNC(=O)c2ccc(Cl)s2)no1 [Example 21, 5-Chloro-thiophene-2-carboxylic acid {2-[(1-isopropyl-piperidin-4-yl)-(5-methyl-isoxazol-3-ylmethyl)-sulfamoyl]-ethyl}-amide]",8.40
10,"O=C(NCCS(=O)(=O)NC1CCN(c2ccncc2)CC1)c1ccc(Cl)s1 [Example 5, 5-Chloro-thiophene-2-carboxylic acid [2-(3,4,5,6-tetrahydro-2H-[1,4′]bipyridinyl-4-ylsulfamoyl)-ethyl]-amide]",7.18
11,"CC(C)N1CCC(N(CC(N)=O)S(=O)(=O)CCNC(=O)c2ccc(Cl)s2)CC1 [Example 20, 5-Chloro-thiophene-2-carboxylic acid {2-[carbamoylmethyl-(1-isopropyl-piperidin-4-yl)-sulfamoyl]-ethyl}-amide]",8.52
12,"Cc1ccc(C(=O)NCCS(=O)(=O)NC2CCN(C(C)C)CC2)s1 [Example 10, 5-Methyl-thiophene-2-carboxylic acid [2-(1-isopropyl-piperidin-4-ylsulfamoyl)-ethyl]-amide]",6.59
13,"CC(C)N1CCC(N(CCCO)S(=O)(=O)CCNC(=O)c2ccc(Cl)s2)CC1 [Example 17, 5-Chloro-thiophene-2-carboxylic acid {2-[(3-hydroxy-propyl)-(1-isopropyl-piperidin-4-yl)-sulfamoyl]-ethyl}-amide]",8.40
14,"CC(C)N1CCC(NS(=O)(=O)CC(C)(C)NC(=O)c2ccc(Cl)s2)CC1 [Example 28, 5-Chloro-thiophene-2-carboxylic acid [2-(1-isopropyl-piperidin-4-ylsulfamoyl)-1,1-dimethyl-ethyl]-amide]",5.47
15,"O=C(NCCS(=O)(=O)NC1CNC1)c1ccc(Cl)s1 [Example 6, 5-Chloro-thiophene-2-carboxylic acid[2-(azetidin-3-ylsulfamoyl)-ethyl]-amide]",4.69
16,"CC(C)N1CCC(N(C)S(=O)(=O)CCNC(=O)c2ccc(Cl)s2)CC1 [Example 3, 5-Chloro-thiophene-2-carboxylic acid {2-[(1-isopropyl-piperidin-4-yl)-methyl-sulfamoyl]-ethyl}-amide]",8.15

row,SMILES,pKi
1,"O=C(NCCS(=O)(=O)NN1CCN(Cc2ccccc2)CC1)c1ccc(Cl)s1 [Example 8, 5-Chloro-thiophene-2-carboxylic acid [2-(4-benzyl-piperazin-1-ylsulfamoyl)-ethyl]-amide]",5.96
2,"CC(C)N1CCC(N(CCO)S(=O)(=O)CCNC(=O)c2ccc(Cl)s2)CC1 [Example 16, 5-Chloro-thiophene-2-carboxylic acid {2-[(2-hydroxy-ethyl)-(1-isopropyl-piperidin-4-yl)-sulfamoyl]-ethyl}-amide]",8.40
3,"CCCNC(=O)N(C1CCN(C(C)C)CC1)S(=O)(=O)CCNC(=O)c1ccc(Cl)s1 [Example 24, 5-Chloro-thiophene-2-carboxylic acid {2-[(1-isopropyl-piperidin-4-yl)-propylaminocarbonyl-sulfamoyl]-ethyl}-amide]",8.40
4,"CC(C)N1CC(NS(=O)(=O)CCNC(=O)c2ccc(Cl)s2)C1 [Example 7, 5-Chloro-thiophene-2-carboxylic acid [2-(1-isopropyl-azetidin-3-ylsulfamoyl)-ethyl]-amide]",5.14
5,"CC(C)N1CCC(N(Cc2nnc(C3CC3)s2)S(=O)(=O)CCNC(=O)c2ccc(Cl)s2)CC1 [Example 33, 5-Chloro-thiophene-2-carboxylic acid {2-[(5-cyclopropyl-[1,3,4]thiadiazol-2-ylmethyl)-(1-isopropyl-piperidin-4-yl)-sulfamoyl]-ethyl}-amide]",8.22
6,"CC(C)N1CCC(N(Cc2nccs2)S(=O)(=O)CCNC(=O)c2ccc(Cl)s2)CC1 [Example 23, 5-Chloro-thiophene-2-carboxylic acid {2-[(1-isopropyl-piperidin-4-yl)-thiazol-2-ylmethyl-sulfamoyl]-ethyl}-amide]",8.22
7,"CC(C)N1CCC(NS(=O)(=O)CCNC(=O)c2ccc(Br)o2)CC1 [Example 11, 5-Bromo-furan-2-carboxylic acid [2-(1-isopropyl-piperidin-4-ylsulfamoyl)-ethyl]-amide]",5.50
8,"CC(C)N1CCC(N(CC(=O)N2CCOCC2)S(=O)(=O)CCNC(=O)c2ccc(Cl)s2)CC1 [Example 19, 5-Chloro-thiophene-2-carboxylic acid {2-[(1-isopropyl-piperidin-4-yl)-(2-morpholin-4-yl-2-oxo-ethyl)-sulfamoyl]-ethyl}-amide]",8.30
9,"CC(C)N1CCC(NS(=O)(=O)C(C)CNC(=O)c2ccc(Cl)s2)CC1 (racemic) [Example 26, 5-Chloro-thiophene-2-carboxylic acid [2-(1-isopropyl-piperidin-4-ylsulfamoyl)-propyl]-amide]",7.89
10,"CC(C)N1CCC(NS(=O)(=O)CCNC(=O)c2ccc(Cl)s2)CC1 [Example 1, 5-Chloro-thiophene-2-carboxylic acid [2-(1-isopropyl-piperidin-4-ylsulfamoyl)-ethyl]-amide]",8.00
11,"CC(C)N1CCC(N(Cc2cccnc2)S(=O)(=O)CCNC(=O)c2ccc(Cl)s2)CC1 [Example 22, 5-Chloro-thiophene-2-carboxylic acid {2-[(1-isopropyl-piperidin-4-yl)-pyridin-3-ylmethyl-sulfamoyl]-ethyl}-amide]",8.10
12,"CC(=O)N(C1CCN(C(C)C)CC1)S(=O)(=O)CCNC(=O)c1ccc(Cl)s1 [Example 25, 5-Chloro-thiophene-2-carboxylic acid {2-[acetyl-(1-isopropyl-piperidin-4-yl)-sulfamoyl]-ethyl}-amide]",8.52
13,"CC(C)N1CCC(NS(=O)(=O)C[C@H](CO)NC(=O)c2ccc(Cl)s2)CC1 [Example 27, 5-Chloro-thiophene-2-carboxylic acid [(S)-1-hydroxymethyl-2-(1-isopropyl-piperidin-4-ylsulfamoyl)-ethyl]-amide]",5.90
14,"CC(C)N1CCC(N(Cc2cc(-c3ccc(Cl)s3)on2)S(=O)(=O)CCNC(=O)c2ccc(Cl)s2)CC1 [Example 32, 5-Chloro-thiophene-2-carboxylic acid {2-[[5-(5-chloro-thiophen-2-yl)-isoxazol-3-ylmethyl]-(1-isopropyl-piperidin-4-yl)-sulfamoyl]-ethyl}-amide]",8.22
15,"CC(C)N1CCC(N2C(=O)CC(CNC(=O)c3ccc(Cl)s3)S2(=O)=O)CC1 (racemic) [Example 31, 5-Chloro-thiophene-2-carboxylic acid [2-(1-isopropyl-piperidin-4-yl)-1,1,3-trioxo-1λ^6-isothiazolidin-5-ylmethyl]-amide]",7.49
16,"CC(C)N1CCC(NS(=O)(=O)CCNC(=O)c2ccc(Cl)cn2)CC1 [Example 13, 5-Chloro-pyridine-2-carboxylic acid [2-(1-isopropyl-piperidin-4-ylsulfamoyl)-ethyl]-amide]",5.35
